Test results: patent US20130045952A1, “ABA Receptor Agonists for Increased Plant Stress Resistance” (Van Andel Research Institute, priority 2011, published 2013)

Assays:
[1] = system: PP2Cs HAB1, ABI1, and ABI2; assay: Phosphatase assays, PYR/PYL receptor-dependent inhibition of PP2Cs; format: biochemical
Procedure: (§1) To determine the biochemical basis of these observations, we used purified proteins of PYR1 and PYL1 to PYL6 to measure their interactions with three PP2Cs, HAB1, ABI1, and ABI2, in vitro. […] In phosphatase assays, pyrabactin promoted PYR1, PYL1, PYL3, PYL5, and PYL6, but not PYL2 and PYL4, to inhibit all three PP2Cs.
(§2) Mutant proteins were expressed as H6GST-fusion proteins and purified by glutathione sepharose chromatography. Protein-protein interactions were determined by luminescence proximity AlphaScreen assay. Biotinylated PP2C proteins for the luminescence proximity assay were generated by in vivo biotinylation of avitag-PP2C fusion proteins. PP2C phosphatase activity was measured by phosphate release from a SnRK2.6 phosphoprotein.
PP2Cs and PYR/PYL proteins were pre-incubated at the indicated concentrations in 50 mM imidazole, pH 7.2, 5 mM MgCl2, 0.1% β-mercaptoethanol and 0.5 mg/ml BSA for 30 min at room temperature. Reactions were started by addition of 100 μM of a phosphopeptide corresponding to amino acids 170-180 of SnRK2.6 (HSQPK^pSTVGTP). This peptide is phosphorylated at a single residue corresponding to Ser175 in SnRK2.6, whose phosphorylation is required for SnRK2.6 kinase activity^32. Phosphate release from ^pS175 from the phosphopeptide was determined by colorimetric assay (BioVision).

[2] = system: HAB1 PP2C / PYR/PYL receptors; settings: yeast two-hybrid; cited from earlier work
PYL2 A93F = molecular target: T1, PYL2 A93F (Arabidopsis thaliana, UniProt O80992, A93F); assay: PP2C binding and phosphatase assays of mutant PYL2 A93F; format: biochemical
T1 construct: PYL2 (residues 14-188), and HAB1 (residues 172-511) were prepared as recombinant proteins in E. coli; made in house; host or cells: E. coli (stated for PYL2 in general)
Text: The closest distance between the pyridine ring of pyrabactin and the LPA gating residues is 4.8 Å-7.0 Å when the LPA loop assumes the ABA-bound closed conformation, but is 11-13 Å when the LPA gate is in open conformation. In contrast, the distance of the naphthalene double ring of pyrabactin or the cyclohexene ring of ABA to the three side chains of the LPA gate in the PYL1 structure is 3.4-4.6 Å, a range for strong Van der Waals interactions, thus helping to keep the LPA gate in the closed conformation. […] To validate this hypothesis, we changed the alanine in the LPA loop to a larger residue. […] As expected from structural modeling, replacement of the gate residue A93 with the bulky phenylalanine ring also abrogated ABA to promote PYL2 activation.
as §2
Site-directed mutagenesis was carried out using the QuickChange method (Stratagene). Mutations and all plasmid constructs were confirmed by sequencing.

[3] = molecular target: T2, PYL6 / PP2Cs (HAB1, ABI1, ABI2) (Arabidopsis thaliana, UniProt Q8S8E3); assay: In vitro PYL6-PP2C interaction; format: biochemical; settings: purified proteins in vitro
T2 construct: made in house; host or cells: not expressly stated for PYL6
T2 sequence (Q8S8E3 1-215): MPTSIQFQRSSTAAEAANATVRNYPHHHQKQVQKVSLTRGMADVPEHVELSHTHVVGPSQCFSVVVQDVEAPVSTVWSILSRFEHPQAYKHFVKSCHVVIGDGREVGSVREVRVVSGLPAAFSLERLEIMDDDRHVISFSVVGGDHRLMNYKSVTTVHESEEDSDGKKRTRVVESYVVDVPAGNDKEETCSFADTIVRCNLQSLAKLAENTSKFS
Procedure: as §1, §2
Interactions between PYR/PYL and PP2Cs were assessed by luminescence-proximity AlphaScreen technology (Perkin Elmer). Briefly, biotinylated PP2Cs were attached to streptavidin-coated donor beads, and H6-tagged PYR/PYL receptors were attached to nickel-chelated acceptor beads. The donor and acceptor beads were brought into proximity by the interactions between PYR/PYLs and PP2Cs, which were measured with and without ligands. When excited by a laser beam of 680 nm, the donor beam emits singlet oxygen that activates thioxene derivatives in the acceptor beads, which releases photons of 520-620 nm as the binding signal. […]

T1 sequence (O80992 14-188 A93F): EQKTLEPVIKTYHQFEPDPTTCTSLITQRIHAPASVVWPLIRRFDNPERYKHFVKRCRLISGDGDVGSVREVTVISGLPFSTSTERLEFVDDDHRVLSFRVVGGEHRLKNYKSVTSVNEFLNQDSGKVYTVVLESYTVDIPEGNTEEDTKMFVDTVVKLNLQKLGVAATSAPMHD

O=S(=O)(NCc1ccccn1)c1ccc(Br)c2ccccc12 [Pyrabactin, pyrabactin]
Effect on ABA-dependent inhibition of PP2Cs by PYL2 ([1]; high concentrations of pyrabactin, in the presence of ABA): reversed | Promotion of PYL1 to inhibit all three PP2Cs ([1]; phosphatase assays, receptor PYL1): promoted | Promotion of PYL2 to inhibit all three PP2Cs ([1]; phosphatase assays, receptor PYL2): not and did not promote | Promotion of PYL3 to inhibit all three PP2Cs ([1]; phosphatase assays, receptor PYL3): promoted | Promotion of PYL4 to inhibit all three PP2Cs ([1]; phosphatase assays, receptor PYL4): not | Promotion of PYL5 to inhibit all three PP2Cs ([1]; phosphatase assays, receptor PYL5): promoted | Promotion of PYL6 to inhibit all three PP2Cs ([1]; phosphatase assays, receptor PYL6): promoted | Promotion of PYR1 to inhibit all three PP2Cs ([1]; phosphatase assays, receptor PYR1): promoted | Interaction of the HAB1 PP2C with PYL1 [2]: promoted | Interaction of the HAB1 PP2C with PYL2 [2]: not | Interaction of the HAB1 PP2C with PYL3 [2]: promoted | Interaction of the HAB1 PP2C with PYL4 [2]: not | Interaction of the HAB1 PP2C with PYR1 [2]: promoted | Activation of mutant PYL2 A93F receptor (PYL2 A93F): pyrabactin-activated receptor | Promotion of PYL6 interaction with the three PP2Cs [3]: promoted interaction
